Measured values published in patent US9580416B2, “Inhibitors of Bruton's tyrosine kinase” (PHARMACYCLICS LLC, priority 2014, dated 2017).

What was measured:
Type in all cases: biochemical
[1] = molecular target: T1, JAK3 (Homo sapiens, UniProt P52333); test: Inhibition of a panel of kinases, in vitro HotSpot kinase assay: JAK3
T1 sequence (P52333 1-1124): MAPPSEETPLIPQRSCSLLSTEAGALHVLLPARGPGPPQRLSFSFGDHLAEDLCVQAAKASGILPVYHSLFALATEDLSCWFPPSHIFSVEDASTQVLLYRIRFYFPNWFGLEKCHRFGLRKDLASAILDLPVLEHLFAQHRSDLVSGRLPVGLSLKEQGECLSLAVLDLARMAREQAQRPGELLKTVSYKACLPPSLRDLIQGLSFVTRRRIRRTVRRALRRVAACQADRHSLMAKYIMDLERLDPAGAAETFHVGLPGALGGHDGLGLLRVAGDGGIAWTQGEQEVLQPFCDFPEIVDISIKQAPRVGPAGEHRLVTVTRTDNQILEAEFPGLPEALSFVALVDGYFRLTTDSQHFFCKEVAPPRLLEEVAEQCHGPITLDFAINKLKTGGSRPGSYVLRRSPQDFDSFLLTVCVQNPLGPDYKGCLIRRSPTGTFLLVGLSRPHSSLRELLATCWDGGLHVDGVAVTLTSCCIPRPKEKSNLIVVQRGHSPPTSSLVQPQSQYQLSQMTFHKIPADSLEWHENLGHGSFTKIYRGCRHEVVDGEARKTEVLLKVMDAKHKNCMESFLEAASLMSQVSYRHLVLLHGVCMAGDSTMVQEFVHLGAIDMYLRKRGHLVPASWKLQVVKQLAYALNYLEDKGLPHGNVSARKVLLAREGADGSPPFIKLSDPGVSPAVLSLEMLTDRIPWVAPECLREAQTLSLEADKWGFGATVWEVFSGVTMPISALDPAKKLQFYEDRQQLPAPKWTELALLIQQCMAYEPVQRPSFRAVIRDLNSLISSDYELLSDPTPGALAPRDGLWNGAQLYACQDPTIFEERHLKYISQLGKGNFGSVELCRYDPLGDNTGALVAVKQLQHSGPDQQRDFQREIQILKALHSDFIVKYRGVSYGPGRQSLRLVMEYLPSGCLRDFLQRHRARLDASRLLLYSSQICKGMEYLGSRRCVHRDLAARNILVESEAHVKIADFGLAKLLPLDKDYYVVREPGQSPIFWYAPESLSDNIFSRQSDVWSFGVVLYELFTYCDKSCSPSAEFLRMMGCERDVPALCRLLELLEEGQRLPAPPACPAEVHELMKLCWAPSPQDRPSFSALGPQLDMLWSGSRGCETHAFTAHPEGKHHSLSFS
Procedure: (§1) The degree of inhibition of a panel of kinases is determined using the in vitro HotSpot kinase assay (purified enzymes, ^33P-ATP, an appropriate substrate and 1 uM ATP).

[2] = molecular target: Lck (Homo sapiens, UniProt P06239); test: Lck kinase activity, TR-FRET assay; conditions: read-out: LCK (IC50)
Summary of the method: (§2)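 Enzyme (Btk 0.5 nM; Lck 6 nM) reacted 1 h with inhibitor, ATP at Km and biotin-peptide substrate in pH 7.4 buffer, 10% DMSO. Phosphopeptide detected by Eu-p-Tyr100 antibody plus streptavidin-APC (665/615 nm). IC50 calculated from fitted Ki(app) via ATP/Km correction plus half total enzyme.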

[3] = molecular target: EGFR (Homo sapiens, UniProt P00533); test: Inhibition of a panel of kinases, in vitro HotSpot kinase assay: EGFR
Procedure: as §1

[4] = molecular target: Btk (Homo sapiens, UniProt Q06187); test: Btk kinase activity, TR-FRET assay; conditions: read-out: Btk (IC50)
Summary of the method: as §2

Sequence of Lck (P06239 whole entry, species assumed): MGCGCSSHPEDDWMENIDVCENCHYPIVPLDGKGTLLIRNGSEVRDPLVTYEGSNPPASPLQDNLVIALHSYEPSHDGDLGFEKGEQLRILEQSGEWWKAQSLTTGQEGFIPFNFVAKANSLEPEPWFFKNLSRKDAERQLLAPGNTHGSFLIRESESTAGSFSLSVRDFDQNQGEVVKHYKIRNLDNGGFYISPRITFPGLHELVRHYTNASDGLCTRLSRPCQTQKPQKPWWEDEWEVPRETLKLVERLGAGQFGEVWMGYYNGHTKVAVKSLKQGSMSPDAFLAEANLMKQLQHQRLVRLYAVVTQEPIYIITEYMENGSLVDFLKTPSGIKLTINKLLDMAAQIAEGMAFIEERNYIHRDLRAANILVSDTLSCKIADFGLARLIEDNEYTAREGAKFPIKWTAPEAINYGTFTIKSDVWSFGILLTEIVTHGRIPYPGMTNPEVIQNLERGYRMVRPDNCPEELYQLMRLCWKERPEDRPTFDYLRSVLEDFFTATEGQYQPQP
Sequence of EGFR (P00533 25-1210): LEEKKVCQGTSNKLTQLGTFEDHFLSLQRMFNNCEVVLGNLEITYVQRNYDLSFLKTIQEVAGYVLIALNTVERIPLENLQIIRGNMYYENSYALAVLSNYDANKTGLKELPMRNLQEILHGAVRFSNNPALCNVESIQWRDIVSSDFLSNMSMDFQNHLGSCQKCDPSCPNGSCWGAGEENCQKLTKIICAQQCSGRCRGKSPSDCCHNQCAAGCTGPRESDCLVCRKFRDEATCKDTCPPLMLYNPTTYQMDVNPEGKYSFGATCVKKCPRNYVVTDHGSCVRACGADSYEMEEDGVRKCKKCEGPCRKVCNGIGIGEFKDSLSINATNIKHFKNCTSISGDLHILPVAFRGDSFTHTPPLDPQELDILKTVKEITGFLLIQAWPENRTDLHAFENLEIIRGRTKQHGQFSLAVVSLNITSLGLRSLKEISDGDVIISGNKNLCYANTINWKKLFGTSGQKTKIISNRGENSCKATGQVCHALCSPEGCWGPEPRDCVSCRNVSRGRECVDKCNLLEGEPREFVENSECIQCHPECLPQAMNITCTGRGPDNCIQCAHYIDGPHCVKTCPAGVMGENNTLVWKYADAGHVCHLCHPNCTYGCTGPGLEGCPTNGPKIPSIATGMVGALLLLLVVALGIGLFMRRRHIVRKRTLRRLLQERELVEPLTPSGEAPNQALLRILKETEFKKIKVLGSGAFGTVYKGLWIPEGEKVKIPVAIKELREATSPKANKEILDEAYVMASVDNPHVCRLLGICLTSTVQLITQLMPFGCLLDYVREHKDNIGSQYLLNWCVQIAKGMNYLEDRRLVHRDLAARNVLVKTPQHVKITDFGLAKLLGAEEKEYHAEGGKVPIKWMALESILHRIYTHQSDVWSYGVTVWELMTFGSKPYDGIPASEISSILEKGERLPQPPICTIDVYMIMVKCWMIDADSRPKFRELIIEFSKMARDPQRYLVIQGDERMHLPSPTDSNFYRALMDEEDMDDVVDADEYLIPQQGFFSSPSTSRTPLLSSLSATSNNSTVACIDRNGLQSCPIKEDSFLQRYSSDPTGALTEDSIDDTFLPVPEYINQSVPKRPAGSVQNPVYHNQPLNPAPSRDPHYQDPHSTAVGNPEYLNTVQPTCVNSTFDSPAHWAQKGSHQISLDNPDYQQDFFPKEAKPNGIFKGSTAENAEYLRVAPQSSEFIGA
Sequence of Btk (Q06187 whole entry): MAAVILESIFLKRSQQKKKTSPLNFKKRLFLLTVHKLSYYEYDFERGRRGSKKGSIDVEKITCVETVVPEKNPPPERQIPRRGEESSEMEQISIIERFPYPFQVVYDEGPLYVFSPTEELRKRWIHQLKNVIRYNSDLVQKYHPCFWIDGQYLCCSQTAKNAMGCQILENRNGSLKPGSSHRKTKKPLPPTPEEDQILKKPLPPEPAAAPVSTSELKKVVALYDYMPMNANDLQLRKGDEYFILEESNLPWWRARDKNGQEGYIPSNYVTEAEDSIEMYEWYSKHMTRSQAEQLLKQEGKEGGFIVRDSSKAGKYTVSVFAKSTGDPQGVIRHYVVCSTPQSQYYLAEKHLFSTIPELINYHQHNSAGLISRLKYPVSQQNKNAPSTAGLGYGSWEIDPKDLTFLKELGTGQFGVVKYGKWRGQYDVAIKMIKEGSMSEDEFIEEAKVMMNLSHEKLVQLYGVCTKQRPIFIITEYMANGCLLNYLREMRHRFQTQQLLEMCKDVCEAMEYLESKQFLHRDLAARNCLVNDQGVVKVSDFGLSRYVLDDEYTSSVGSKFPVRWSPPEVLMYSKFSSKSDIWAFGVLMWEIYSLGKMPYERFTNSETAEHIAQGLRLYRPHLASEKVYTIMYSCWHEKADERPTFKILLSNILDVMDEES

Row | Compound | IC50 [1] [nM] | IC50 [2] [nM] | IC50 [3] [nM] | IC50 [4] [nM]
1 | CC1(C(=O)N2CCC[C@@H](Nc3n[nH]c4nccc(Oc5ccc(C(=O)Nc6ccccn6)cc5)c34)C2)CCOCC1 [compound 112, 4-[(3-{[(3R)-1-(4-methyloxane-4-carbonyl)piperidin-3-yl]amino}-1H-pyrazolo[3,4-b]pyridin-4-yl)oxy]N-(pyridin-2-yl)benzamide] | > 10000 | 1000 to 10000 | > 10000 | < 100
2 | Cc1cc(NC(=O)c2cccc(Nc3ccnc4[nH]nc(O[C@@H]5CCCN(C(=O)C6CC6)C5)c34)c2)ccc1C(C)C [compound 134, 3-[(3-{[(3R)-1-cyclopropanecarbonylpiperidin-3-yl]oxy}-1H-pyrazolo[3,4-b]pyridin-4-yl)amino]-N-[3-methyl-4-(propan-2-yl)phenyl]benzamide] | > 10000 | 1000 to 10000 | > 10000 | 100 to 1000
3 | CCNC(=O)N1CCC[C@@H](Nc2n[nH]c3nccc(Oc4ccc(C(=O)Nc5cc(C(F)(F)F)ccn5)cc4)c23)C1 [compound 207, (3R)-N-ethyl-3-{[4-(4-{[4-(trifluoromethyl)pyridin-2-yl]carbamoyl}phenoxy)-1H-pyrazolo[3,4-b]pyridin-3-yl]amino}piperidine-1-carboxamide] | > 10000 | 100 to 1000 | 1000 to 10000 | < 100
4 | Cc1cnc(NC(=O)c2ccc(Oc3ccnc4[nH]nc(N[C@@H]5CCCN(C(=O)/C=C/CN(C)C)C5)c34)cc2)s1 [compound 198, 4-[(3-{[(3R)-1-[(2E)-4-(dimethylamino)but-2-enoyl]piperidin-3-yl]amino}-1H-pyrazolo[3,4-b]pyridin-4-yl)oxy]-N-(5-methyl-1,3-thiazol-2-yl)benzamide] | > 10000 | 100 to 1000 | 1000 to 10000 | < 100
5 | CC(=O)N1CCC[C@@H](Oc2n[nH]c3nccc(Nc4cccc(C(=O)Nc5ccc(C(C)C)c(C)c5)c4)c23)C1 [compound 135, 3-[(3-{[(3R)-1-acetylpiperidin-3-yl]oxy}-1H-pyrazolo[3,4-b]pyridin-4-yl)amino]-N-[3-methyl-4-(propan-2-yl)phenyl]benzamide] | > 10000 | 1000 to 10000 | 1000 to 10000 | 100 to 1000
6 | COCCC(=O)N1CCC[C@@H](Nc2n[nH]c3nccc(Oc4ccc(C(=O)Nc5cc(C)ccn5)cc4)c23)C1 [compound 119, 4-[(3-{[(3R)-1-(3-methoxypropanoyl)piperidin-3-yl]amino}-1H-pyrazolo[3,4-b]pyridin-4-yl)oxy]-N-(4-methylpyridin-2-yl)benzamide] | > 10000 | 100 to 1000 | 1000 to 10000 | < 100
7 | CCOP(=O)(CCC(=O)N1CCC[C@@H](Nc2n[nH]c3nccc(Oc4ccc(C(=O)Nc5cc(C)ccn5)cc4)c23)C1)OCC [compound 273, (R)-diethyl 3-(3-(4-(4-(4-methylpyridin-2-ylcarbamoyl)phenoxy)-1H-pyrazolo[3,4-b]pyridin-3-ylamino)piperidin-1-yl)-3-oxopropylphosphonate] | > 10000 | 1000 to 10000 | > 10000 | < 100
8 | COCC1(C(=O)N2CCC[C@@H](Nc3n[nH]c4nccc(Oc5ccc(C(=O)Nc6cc(C)ccn6)cc5)c34)C2)CCC1 [compound 99, 4-[(3-{[(3R)-1-[1-(methoxymethyl)cyclobutanecarbonyl]piperidin-3-yl]amino}-1H-pyrazolo[3,4-b]pyridin-4-yl)oxy]-N-(4-methylpyridin-2-yl)benzamide] | > 10000 | 100 to 1000 | > 10000 | < 100
9 | Cc1cccc2nc(-c3ccc(Oc4ccnc5[nH]nc(N[C@@H]6CCCN(C(=O)C7CC7)C6)c45)cc3)oc12 [compound 220, (3R)-1-cyclopropanecarbonyl-N-{4-[4-(7-methyl-1,3-benzoxazol-2-yl)phenoxy]-1H-pyrazolo[3,4-b]pyridin-3-yl}piperidin-3-amine] | > 10000 | > 10000 | > 10000 | 1000 to 10000
10 | Cc1ccnc(NC(=O)c2ccc(Oc3ccnc4[nH]nc(N[C@@H]5CCCN(C(=O)[C@@H]6CCCO6)C5)c34)cc2)c1 (single isomer, unassigned) [compound 94] | > 10000 | 100 to 1000 | 1000 to 10000 | < 100

Continued, values first:

Row | IC50 [1] [nM] | IC50 [2] [nM] | IC50 [3] [nM] | IC50 [4] [nM] | Compound
11 | < 100 | 100 to 1000 | 100 to 1000 | < 100 | C=CC(=O)N1CCC[C@@H](Nc2n[nH]c3nccc(Oc4ccc(C(=O)Nc5nc(C)c(C)s5)cc4)c23)C1 [compound 146]
12 | > 10000 | 1000 to 10000 | > 10000 | < 100 | CC1(C(=O)N2CCC[C@@H](Nc3n[nH]c4nccc(Oc5ccc(C(=O)Nc6ccccn6)cc5)c34)C2)COC1 [compound 111, 4-[(3-{[(3R)-1-(3-methyloxetane-3-carbonyl)piperidin-3-yl]amino}-1H-pyrazolo[3,4-b]pyridin-4-yl)oxy]-N-(pyridin-2-yl)benzamide]
13 | > 10000 | 100 to 1000 | 1000 to 10000 | < 100 | Cc1ccnc(NC(=O)c2ccc(Oc3ccnc4[nH]nc(N[C@@H]5CCCN(C#N)C5)c34)cc2)c1 [compound 276, (R)-4-(3-(1-cyanopiperidin-3-ylamino)-1H-pyrazolo[3,4-b]pyridin-4-yloxy)-N-(4-methylpyridin-2-yl)benzamide]
14 | > 10000 | > 10000 | > 10000 | 100 to 1000 | CN1CCc2sc(NC(=O)c3ccc(Oc4ccnc5[nH]nc(N[C@@H]6CCCN(C(=O)/C=C/CN(C)C7CC7)C6)c45)cc3)nc2C1 [compound 137, 4-[(3-{[(3R)-1-[(2E)-4-[cyclopropyl(methyl)amino]but-2-enoyl]piperidin-3-yl]amino}-1H-pyrazolo[3,4-b]pyridin-4-yl)oxy]-N-{5-methyl-4H,5H,6H,7H-[1,3]thiazol[4,5-c]pyridin-2-yl}benzamide]
15 | 1000 to 10000 | < 100 | 1000 to 10000 | 100 to 1000 | CC(=O)N1CC[C@H](Nc2n[nH]c3nccc(Oc4cccc(C(=O)Nc5ccc(C(C)C)c(C)c5)c4)c23)C1 [compound 124, 3-[(3-{[(3S)-1-acetylpyrrolidin-3-yl]amino}-1H-pyrazolo[3,4-b]pyridin-4-yl)oxy]-N-[3-methyl-4-(propan-2-yl)phenyl]benzamide]
16 | < 100 | 1000 to 10000 | 1000 to 10000 | < 100 | C=CC(=O)N1CCC[C@@H](Nc2n[nH]c3nccc(Oc4ccc(C(=O)Nc5nc(C)cs5)cc4)c23)C1 [compound 143]
17 | 100 to 1000 | 100 to 1000 | < 100 | < 100 | C=CC(=O)N1CCC[C@@H](Nc2n[nH]c3nccc(Oc4ccc(C(=O)Nc5cc(C(F)(F)F)ccn5)cc4)c23)C1 [compound 203, 4-[(3-{[(3R)-1-(prop-2-enoyl)piperidin-3-yl]amino}-1H-pyrazoo[3,4-b]pyridin-4-yl)oxy]-N-[4-(trifluoromethyl)pyridin-2-yl]benzamide]
18 | 1000 to 10000 | < 100 | 1000 to 10000 | 100 to 1000 | CC(=O)N1CC[C@@H](Nc2n[nH]c3nccc(Oc4cccc(C(=O)Nc5ccc(C(C)C)c(C)c5)c4)c23)C1 [compound 123, 3-[(3-{[(3R)-1-acetylpyrrolidin-3-yl]amino}-1H-pyrazolo[3,4-b]pyridin-4-yl)oxy]-N-[3-methyl-4-(propan-2-yl)phenyl]benzamide]
